According to US6472348B1, “Pyridone derivatives and herbicides” (Kumiai Chemical Industry Co., Ltd., priority 1996, dated 2002):

Tests used:
Format in all cases: in vivo
Design in all cases: scale not given here
slender amaranth (Am) = experiment: Test Example 11: crop plant selectivity by upland field foliage treatment (corn), herbicidal effects
Procedure, shortened: (§1)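 Corn with pale smartweed, slender amaranth, common lambsquarters and China jute sown in sand-filled pots and grown 2 weeks in a greenhouse before foliage treatment. Herbicidal effect and crop phytotoxicity scored on day 14 after treatment against a rating standard.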

pale smartweed (Po) [1] = experiment: as above
Procedure, shortened: as §1

[2] = test system: common lambsquarters (Ch); experiment: as above
Procedure, shortened: as §1

China jute (Ab) = experiment: as above
Procedure, shortened: as §1

pale smartweed (Po) [3] = experiment: Test Example 3: herbicidal effects by upland field foliage treatment
Procedure, shortened: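 Using plants cultured for 2 weeks in a greenhouse from seed sown in soil-covered sand (pots 120 cm^2), the compounds were applied to foliage, and weed control was graded by standard criteria 14 days thereafter.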

wheat (Tr) = experiment: Test Example 5: crop plant selectivity by upland field soil treatment (wheat), phytotoxicity; conditions: 21st day after application
Procedure, shortened: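 Scores are visual ratings of herbicidal effect or wheat phytotoxicity, recorded on the 21st day after soil treatment of pots sown with wheat and weeds and kept in a greenhouse.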

[4] = slender amaranth, foliage treatment, dose 1.6 g ai/10a, evaluated on 14th day after treatment, index per Table 47
[5] = pale smartweed, foliage treatment, dose 1.6 g ai/10a, evaluated on 14th day after treatment, index per Table 47
[6] = common lambsquarters, foliage treatment, dose 1.6 g ai/10a, evaluated on 14th day after treatment, index per Table 47
[7] = China jute, foliage treatment, dose 1.6 g ai/10a, evaluated on 14th day after treatment, index per Table 47
[8] = 100 g active ingredient per 10 ares, evaluated 14th day after treatment
[9] = 100 g of the active ingredient per 10 ares, evaluated on the 14th day after treatment
[10] = upland field foliage treatment (corn test), dose 1.6 g ai/10a, 14th day after treatment
[11] = upland field foliage treatment (corn test), dose 0.1 g ai/10a, 14th day after treatment

Row | Structure (SMILES) | Herbicidal effects Po (pale smartweed (Po) [3]; [8]) | Phytotoxicity Tr (wheat (Tr); dose 1.6 g ai/10a) | Herbicidal effects Po (pale smartweed (Po) [3]; [9]) | Herbicidal effects Am (slender amaranth (Am); [10]) | Herbicidal effects Po (pale smartweed (Po) [1]; [10]) | Herbicidal effects Ch [2, 10] | Herbicidal effects Ab (China jute (Ab); [10]) | Phytotoxicity Tr (wheat (Tr); dose 6.3 g ai/10a) | further results
1 | C#CC(C)Oc1cc(-c2cn(C)c(C(F)(F)F)cc2=O)c(F)cc1Cl (racemic) [Compound 6-10] | 5 | 0 |  |  |  |  |  |  | Herbicidal effects Am (slender amaranth (Am); [4]): 5; Herbicidal effects Po (pale smartweed (Po) [1]; [5]): 4; Herbicidal effects Ch [2, 6]: 5; Herbicidal effects Ab (China jute (Ab); [7]): 5
2 | COc1cc(-c2ccc(C(F)(F)F)n(C)c2=O)c(F)cc1Cl [1-15] |  | 2 | 5 |  |  |  |  |  | 
3 | C=CCOc1cc(-c2ccc(C(F)(F)F)n(C)c2=O)c(F)cc1Cl [1-16] |  | 1 | 5 | 5 | 5 | 5 | 5 | 1 | 
4 | C#CC(C)Oc1cc(-c2ccc(C(F)(F)F)n(C)c2=O)c(F)cc1Cl (stereo not shown) [1-17] |  | 1 | 5 |  |  |  |  |  | 
5 | C#CCOc1cc(-c2ccc(C(F)(F)F)n(C)c2=O)c(F)cc1Cl [1-18] |  | 2 | 5 | 5 | 5 | 5 | 5 |  | 
6 | Cn1c(C(F)(F)F)ccc(-c2cc(OCC#N)c(Cl)cc2F)c1=O [1-25] |  |  | 5 | 5 | 5 | 5 | 5 |  | 
7 | C#CCOc1cc(-c2ccc(C(F)(F)F)n(C)c2=O)c(Cl)cc1Cl [1-30] |  | 2 | 5 | 5 | 5 | 5 | 5 |  | 
8 | CC(C)Sc1cc(-c2ccc(C(F)(F)F)n(C)c2=O)c(F)cc1Cl [1-43] |  |  | 5 |  |  |  |  | 1 | 
9 | C#CCSc1cc(-c2ccc(C(F)(F)F)n(C)c2=O)c(F)cc1Cl [1-44] |  |  | 5 |  |  |  |  | 1 | 
10 | CCOC(=O)c1cc(-c2ccc(C(F)(F)F)n(C)c2=O)c(F)cc1Cl [1-65] |  | 0 | 5 | 5 | 5 | 5 | 5 | 1 | 
11 | Cc1cc(-c2ccc(C(F)(F)F)n(C)c2=O)c(F)cc1Cl [1-90] |  |  | 5 |  |  |  |  | 1 | 
12 | COCSc1cc(-c2ccc(C(F)(F)F)n(C)c2=O)c(F)cc1Cl [1-91] |  | 1 | 5 |  |  |  |  |  | 
13 | Cn1c(C(F)(F)F)ccc(-c2cc(Cl)c(Cl)cc2F)c1=O [1-136] |  | 1 | 5 |  |  |  |  | 2 | 
14 | Cn1c(C(F)(F)F)ccc(-c2cc(OCC(F)(F)F)c(Cl)cc2F)c1=O [1-155] |  | 1 | 5 |  |  |  |  | 2 | 
15 | Cn1c(C(F)(F)F)ccc(-c2cc(OCC3CC3)c(Cl)cc2F)c1=O [1-160] |  |  | 5 |  |  |  |  | 2 | 
16 | C#CCOc1cc(-c2ccc(C(F)(F)F)n(N)c2=O)c(F)cc1Cl [1-178] |  | 1 | 5 | 5 | 5 | 5 | 5 |  | 
17 | COc1cc(-c2ccc(C(F)(F)F)n(N)c2=O)c(F)cc1Cl [1-179] |  |  | 5 | 5 | 5 | 5 | 5 | 1 | 
18 | CCOCOc1cc(-c2ccc(C(F)(F)F)n(C)c2=O)c(F)cc1Cl [1-181] |  |  | 5 | 5 | 5 | 5 | 5 | 1 | 
19 | C#CC(C)Oc1cc(Cl)cc(F)c1-c1ccc(C(F)(F)F)n(C)c1=O (stereo not shown) [1′-5] | 5 | 1 |  | 5 | 5 | 5 | 5 | 1 | 

Row | Structure (SMILES) | Herbicidal effects Po (pale smartweed (Po) [3]; [8]) | Phytotoxicity Tr (wheat (Tr); dose 1.6 g ai/10a) | Herbicidal effects Po (pale smartweed (Po) [3]; [9]) | Herbicidal effects Am (slender amaranth (Am); [10]) | Herbicidal effects Po (pale smartweed (Po) [1]; [10]) | Herbicidal effects Ch [2, 10] | Herbicidal effects Ab (China jute (Ab); [10]) | Phytotoxicity Tr (wheat (Tr); dose 6.3 g ai/10a) | further results
20 | C=CC(C)Oc1cc(-c2ccc(C(F)(F)F)n(C)c2=O)c(F)cc1Cl (stereo not shown) [Compound 1-182] |  |  | 5 | 5 | 5 | 5 | 5 | 1 | 
21 | CCOC(=O)CON=Cc1cc(-c2ccc(C(F)(F)F)n(C)c2=O)c(F)cc1Cl [Compound 1-191] | 5 |  |  | 5 | 5 | 5 | 5 | 1 | 
22 | C=CC(O)c1cc(-c2ccc(C(F)(F)F)n(C)c2=O)c(F)cc1Cl (stereo not shown) [Compound 1-197] | 5 |  |  | 5 | 5 | 5 | 5 | 1 | 
23 | C#CC(O)c1cc(-c2ccc(C(F)(F)F)n(C)c2=O)c(F)cc1Cl (stereo not shown) [Compound 1-202] | 5 | 1 |  |  |  |  |  |  | 
24 | C=CCN1C(=O)COc2cc(F)c(-c3ccc(C(F)(F)F)n(C)c3=O)cc21 [Compound 2-7] | 5 | 0 |  |  |  |  |  |  | 
25 | C#CCN1C(=O)COc2cc(Cl)c(-c3ccc(C(F)(F)F)n(C)c3=O)cc21 [Compound 2-25] | 5 | 1 |  | 5 | 5 | 5 | 5 | 2 | 
26 | C=CCN1C(=O)COc2cc(Cl)c(-c3ccc(C(F)(F)F)n(C)c3=O)cc21 [Compound 2-26] | 5 |  |  | 5 | 5 | 5 | 5 | 1 | 
27 | Cc1cc2c(-c3ccc(C(F)(F)F)n(C)c3=O)c(F)cc(Cl)c2o1 [Compound 4-1] | 5 | 1 |  |  |  |  |  | 2 | 
28 | CCc1cc2c(-c3ccc(C(F)(F)F)n(C)c3=O)c(F)cc(Cl)c2o1 [Compound 4-2] | 5 | 1 |  |  |  |  |  |  | 
29 | C#CCN1C(=O)COc2cc(F)c(-c3cn(C)c(C(F)(F)F)cc3=O)cc21 [Compound 7-1] | 5 |  |  |  |  |  |  | 2 | Herbicidal effects Am (slender amaranth (Am); [4]): 5; Herbicidal effects Po (pale smartweed (Po) [1]; [5]): 5; Herbicidal effects Ch [2, 6]: 5; Herbicidal effects Ab (China jute (Ab); [7]): 5
30 | CON=Cc1cc(-c2ccc(C(F)(F)F)n(C)c2=O)c(F)cc1Cl [Compound No. 1-72, 5-(1-methyl-6-trifluoromethyl-2(1H)-pyridon-3-yl)-2-chloro-4-fluorobenzaldehydeoxime-O-methyl ether] |  | 1 | 5 | 5 | 5 | 5 | 5 |  | 
31 | CCCC(=O)c1cc(-c2ccc(C(F)(F)F)n(C)c2=O)c(F)cc1Cl [Compound No. 1-194, 3-[4-chloro-2-fluoro-5-(1-oxobutyl)phenyl]-1-methyl-6-trifluoromethyl-2(1H)-pyridone] | 5 |  |  | 5 | 5 | 5 | 5 | 1 | 
32 | C#CCN1C(=O)COc2cc(F)c(-c3ccc(C(F)(F)F)n(C)c3=O)cc21 [Compound No. 2-1, 3-[7-fluoro-2,3-dihydro-4-(2-propynyl)-1,4-benzoxazin-3-on-6-yl]-1-methyl-6-trifluoromethyl-2(1H)-pyridone] | 5 | 0 |  |  |  |  |  |  | Herbicidal effects Am (slender amaranth (Am); [11]): 5; Herbicidal effects Po (pale smartweed (Po) [1]; [11]): 5; Herbicidal effects Ch [2, 11]: 5; Herbicidal effects Ab (China jute (Ab); [11]): 5
33 | C#CCn1c(=O)sc2cc(F)c(-c3ccc(C(F)(F)F)n(C)c3=O)cc21 [Compound No. 3-1, 3-[6-fluoro-3-(2-propynyl)-benzothiazolin-2-on-5-yl]-1-methyl-6-trifluoromethyl-2(1H)-pyridone] | 5 |  |  |  |  |  |  | 1 | 
34 | COCc1cc2c(-c3ccc(C(F)(F)F)n(C)c3=O)c(F)cc(Cl)c2o1 [Compound No. 4-4, 3-(7-chloro-5-fluoro-2-methoxymethylbenzofuran-4-yl)-1-methyl-6-trifluoromethyl-2-(1H)-pyridone] | 5 | 2 |  | 5 | 5 | 5 | 5 |  | 
35 | Cn1c(C(F)(F)F)ccc(-c2c(F)cc(Cl)c3oc(CO)cc23)c1=O [Compound No. 4-5, 3-(7-chloro-5-fluoro-2-hydroxymethylbenzofuran-4-yl)-1-methyl-6-trifluoromethyl-2-(1H)-pyridone] | 5 |  |  | 5 | 5 | 5 | 5 | 1 | 
36 | Cn1c(C(F)(F)F)ccc(-c2c(F)cc(Cl)c3occc23)c1=O [Compound No. 4-28, 3-(7-chloro-5-fluorobenzofuran-4-yl)-1-methyl-6-trifluoromethyl-2-(1H)-pyridone] | 5 |  |  | 5 | 5 | 5 | 5 | 2 | 
37 | Cn1cc(-c2cc(Oc3ccccc3)c(Cl)cc2F)c(=O)cc1C(F)(F)F [Compound No. 6-19, 5-(4-chloro-2-fluoro-5-phenoxyphenyl)-1-methyl-2-trifluoromethyl-4(1H)-pyridone] | 5 | 0 |  |  |  |  |  | 0 | 
38 | Cc1cc2c(-c3cn(C)c(C(F)(F)F)cc3=O)c(F)cc(Cl)c2o1 [Compound No. 9-1, 5-(7-chloro-5-fluoro-2-methylbenzofuran-4-yl)-1-methyl-2-trifluoromethyl-4(1H)-pyridone] | 5 | 0 |  |  |  |  |  | 1 | 
